From US8193252B1, “Mesoprogestins (progesterone receptor modulators) for the treatment and prevention of benign hormone dependent gynecological disorders” (Bayer Pharma AG, priority 1999, dated 2012)

Key:
endometriosis [1] = assay: Treatment of endometriosis in women; type: in vivo, human; conditions: women with endometriosis, 3-6 months, 5-50 mg
endometriosis [2] = assay: Sequential treatment of endometriosis with an LHRH agonist and J867; type: in vivo, human
Description: Women with endometriosis are treated for 2-3 months with an LHRH agonist such as Lupron. After the cessation of LHRH-agonist therapy women are treated for the next 3-6 months with J 867 in order to avoid osteoprorosis induced by prolonged treatment with LHRH agonist. During treatment with 5-50 mg J 867 the therapeutic effects of the LHRH-agonist are maintained.

estrogen deficiency (endometriosis [2]; women with endometriosis): does not produce estrogen deficiency
Structure (SMILES): COC[C@]1(OC)CC[C@H]2[C@@H]3CCC4=CC(=O)CCC4=C3[C@@H](c3ccc(/C=N/O)cc3)C[C@@]21C [J867, 4-[17β-Methoxy-17α-(methoxymethyl)-3-oxoestra-4,9-dien-11β-yl]benzaldehyd-(1E)-oxim]
pelvic pain during treatment (endometriosis [1]): reduction of pelvic pain was observed
therapeutic effects of the LHRH-agonist during following treatment (endometriosis [2]; 5-50 mg for 3-6 months after 2-3 months LHRH agonist): maintained
